In patent US12590062B2, “PD-1/PD-L1 inhibitors” (Gilead Sciences, Inc., priority 2017, dated 2026) one finds IC50, AC50 and EC50 data, which are given here for four molecules.

In one assay the target is PD-1/PD-L1 (Homo sapiens, UniProt Q9NZQ7). The assay is described as follows: PD-1/PD-L1 biochemical protein-protein interaction assay (ALPHA). Format: binding. The note with it: 0.3 nM His tagged PD-L1, 2.5 nM biotinylated Fc-PD-1, 60 minutes at 25° C., read-out: IC50 PD-L1-PD-1 Alpha IC50-mono PD-L1-fcP-D1. Summed up: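 Compound blockade of the PD-1/PD-L1 extracellular-domain interaction measured as reduced ALPHA signal after 60 min at 25 °C, pH 7.4 Hepes buffer with EDTA, Tween 20 and BSA. Final proteins: His-tagged PD-L1 0.3 nM, biotinylated Fc-PD-1 2.5 nM; four-parameter curve fit gives IC50.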

The target of a further assay is T1, PD-L1 (Homo sapiens, UniProt Q9NZQ7).
T1 construct: determine if they can specifically dimerize the extracellular domains of PD-L1
Kind of assay: PD-L1/PD-L1 dimerization biochemical protein-protein interaction assay (ALPHA). The format is binding. As to conditions: compound-induced PD-L1 dimerization, head prints '1 nM' (0.5 nM His-tagged PD-L1 and 0.5 nM FLAG-tagged PD-L1), read-out: AC50 PDL1 Dimer Alpha 1 nM. The procedure, abridged:
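After 2 h at 25 °C with compound, His- and FLAG-tagged PD-L1 ECDs (each 0.5 nM final; 25 mM Hepes pH 7.4, 150 mM NaCl) were detected by sequential anti-His acceptor and anti-FLAG donor bead incubations. Dose-response curves fitted to four-parameter equation for AC50.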

The target of assay [1] is T2, interaction between the recombinant extracellular domain (ECD) of PD-1 and native cell-bound PD-L1 (Homo sapiens, UniProt Q9NZQ7).
T2 construct: expressed in transfected cells
The assay is described as follows: CHO/PD-L1 cell capture assay. The format is cell-based. As to conditions: CHO cells overexpressing PD-L1, pre-incubated 1 hr with compound, captured on biotinylated Fc-PD-1 coated plates, 75 min at room temperature. The procedure, abridged: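 EC50 values came from four-parameter fits of counts of Draq5-stained CHO-PD-L1 cells retained on plate-bound biotinylated Fc-PD-1 ECD, enumerated by high-content imaging. Cells in PBS pH 7.4 with EDTA and 2% BSA had 1 hr compound pre-incubation, then 75 min capture at room temperature.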

The target of the next assay is T3, PD-1/PD-L1 interaction (Homo sapiens, UniProt Q9NZQ7).
T3 construct: expressed in transfected cells; host or cells: CHO cells (aAPC-PD-L1) co-cultured with Jurkat cells overexpressing PD-1 and an NFAT-luciferase reporter
Kind of assay: PD-1/PD-L1 NFAT reporter co-culture assay. As to conditions: Jurkat PD-1 NFAT-luciferase cells co-cultured with aAPC-PD-L1 CHO cells, 6 hrs at 37° C.; read-out: EC50 NFAT Luciferase. The format is cell-based. Summed up: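 Jurkat cells overexpressing PD-1 with NFAT-driven luciferase were mixed with compound in RPMI 1640/2% FBS and seeded onto overnight-plated CHO aAPC-PD-L1 cells expressing surface anti-CD3 and PD-L1. Co-culture ran 6 h at 37 °C; luminescence read with ONE-Glo; EC50 from four-parameter fit.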

PD-1/PD-L1, sequence (Q9NZQ7 19-238 limits assumed): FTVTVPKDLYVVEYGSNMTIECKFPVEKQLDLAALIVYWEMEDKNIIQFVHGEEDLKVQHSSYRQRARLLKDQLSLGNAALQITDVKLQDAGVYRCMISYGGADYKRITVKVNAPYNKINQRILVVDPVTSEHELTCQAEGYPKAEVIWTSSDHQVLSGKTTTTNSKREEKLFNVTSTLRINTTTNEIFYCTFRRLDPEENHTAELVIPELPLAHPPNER
T1 sequence (Q9NZQ7 19-238 limits assumed): as above
T1 sequence (Q9NZQ7 19-238 limits assumed): as above
T3 sequence (Q9NZQ7 19-290): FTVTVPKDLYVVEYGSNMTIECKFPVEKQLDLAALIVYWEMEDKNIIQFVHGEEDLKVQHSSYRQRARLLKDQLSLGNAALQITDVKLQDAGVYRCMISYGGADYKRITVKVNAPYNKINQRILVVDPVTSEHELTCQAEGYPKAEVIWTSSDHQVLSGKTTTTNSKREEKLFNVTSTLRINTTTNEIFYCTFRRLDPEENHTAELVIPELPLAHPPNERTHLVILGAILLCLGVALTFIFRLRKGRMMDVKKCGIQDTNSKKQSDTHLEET
T2 sequence (Q9NZQ7 19-290): as above

Take `COc1nc(OCc2cccc(-c3cccc(COc4nc(OC)c(CNCC(=O)O)cc4Cl)c3C)c2C)c(Cl)cc1CNCC(=O)O` [Example 178, 2,2′-((((((2,2′-dimethyl-[1,1′-biphenyl]-3,3′-diyl)bis(methylene))bis(oxy))bis(5-chloro-2-methoxypyridine-6,3-diyl))bis(methylene))bis(azanediyl))diacetic acid]: the IC50 at PD-1/PD-L1 was 0.2 nM. For the same molecule, the half-maximal activity concentration (AC50) at PD-L1 was no less than 10000 nM. Also, the figures for the EC50 (in assay [1]; at PD-1/PD-L1 interaction) were 71.6 nM and 115 nM, respectively.

Take `Cc1c(COc2cc(OCc3cncc(C#N)c3)c(CNC[C@H](O)C(=O)O)cc2Cl)cccc1-c1cccc(COc2cc(OCc3cncc(C#N)c3)c(CNC[C@H](O)C(=O)O)cc2Cl)c1C` [Example 213, (2S,2′S)-3,3′-((((((2,2′-dimethyl-[1,1′-biphenyl]-3,3′-diyl)bis(methylene))bis(oxy))bis(5-chloro-2-((5-cyanopyridin-3-yl)methoxy)-4,1-phenylene))bis(methylene))bis(azanediyl))bis(2-hydroxypropanoic acid)]: the IC50 at PD-1/PD-L1 stood at 1.6 nM. Also, the concentration at half-maximal activity (AC50) on PD-L1 came out at 255 nM. In addition, the EC50 in assay [1] amounted to 165 nM; at PD-1/PD-L1 interaction, 182 nM.

As to `COc1cc(OCc2cccc(-c3cccc(COc4cc(OC)c(CNC[C@@H](O)CC(=O)O)cc4Cl)c3C)c2C)c(Cl)cc1CNC[C@@H](O)CC(=O)O` [Example 214, (3S,3′S)-4,4′-((((((2,2′-dimethyl-[1,1′-biphenyl]-3,3′-diyl)bis(methylene))bis(oxy))bis(5-chloro-2-methoxy-4,1-phenylene))bis(methylene))bis(azanediyl))bis(3-hydroxybutanoic acid)], at PD-1/PD-L1, the half-inhibitory concentration (IC50) amounted to 0.2 nM. In addition, the AC50 on PD-L1 turned out to be 188 nM. Besides, the EC50 in assay [1] was determined as 22.3 nM; at PD-1/PD-L1 interaction, 172 nM.

For the molecule `Cc1c(COc2nc(OCc3cncc(C#N)c3)c(CNC[C@@H](O)CC(=O)O)cc2Br)cccc1-c1cccc(COc2nc(OCc3cncc(C#N)c3)c(CNC[C@@H](O)CC(=O)O)cc2Br)c1C` [Example 240, (3S,3′S)-4,4′-((((((2,2′-dimethyl-[1,1′-biphenyl]-3,3′-diyl)bis(methylene))bis(oxy))bis(5-bromo-2-((5-cyanopyridin-3-yl)methoxy)pyridine-6,3-diyl))bis(methylene))bis(azanediyl))bis(3-hydroxybutanoic acid)], at PD-1/PD-L1, the 50% inhibitory concentration (IC50) turned out to be 0.4 nM. Also, the AC50 on PD-L1 was 367 nM. Besides, the EC50 in assay [1] was 217 nM; on PD-1/PD-L1 interaction, 108 nM.

The IC50 is the concentration that inhibits the measured activity by half. One may read the AC50 as the concentration giving half of the maximal activity seen. The EC50 is the concentration that produces a half-maximal response.
